One data set addresses PDE 2A (Homo sapiens (Human), UniProt O00408). In words: Phosphodiesterase (PDE) 2A assay with fluorescent substrate (IMAP, fluorescence polarization). The class given is biochemical. To be noted: PDE2A, read-out: PDE2 IC50. The procedure:
(§1) The IMAP system (Molecular Device) using fluorescence polarization (FP) as detection principle was used to measure enzyme activity. A fluorescent labeled cAMP was used as substrate for the reaction, generating a labeled AMP. The fluorescent AMP binds specifically to the large M(III)-based nano-particles which reduces the rotational speed of the substrate and thus increases its polarization. Detailed Method: The inhibition of PDE 2A or 10 enzyme activity was assessed using IMAP-Phosphodiesterase-cAMP fluorescence labeled substrate (Molecular Devices, Order No. R7506), IMAP TR-FRET screening express (Molecular Devices, Order No. R8160, the TR-FRET component will not be used) and PDE 2A or PDE10 protein expressed upon baculovirus infection in SF9 cells. The cells were incubated after infection for ˜3 days and protein production was confirmed by Western Blot. The cells were collected by centrifugation and the pellet frozen in liquid nitrogen before it was resuspended in PBS containing 1% Triton X-100 and protease inhibitors. After 45 min incubation on ice, the cell debris was removed by centrifugation (13.000 rpm, 30 min). […] All reactions were performed in 384 well plates, Perkin Elmer black optiplates and IMAP reaction buffer with 0.1% Tween20 (kit component) Compounds were serial diluted in DMSO. […] Reaction is stopped by adding of 60 μl binding buffer for FP/cAMP (kit component).
(Fluorescence polarisation rises when a labelled molecule tumbles more slowly, as on binding a larger partner.)

The test system of the next data set is human MDR1 P-gp. Kind of data set: Assessment of efflux in MDCK cells transfected with the human MDR1 gene (MDCK assay). The class given is in vitro ADME, canine. To be noted: dog. How it is done: Assessment of Efflux in Madin-Darby Canine Kidney Cells Transfected with the Human MDR1 Gene (MDCK Assay)
Apparent permeability coefficients (PE) of the compounds across the MDCK-MDR1 cell monolayers are measured (pH 7.4, 37° C.) in apical-to-basal (AB) and basal-to-apical (BA) transport direction. AB permeability (PEAB) represents drug absorption from the blood into the brain and BA permeability (PEBA) drug efflux from the brain back into the blood via both passive permeability as well as active transport mechanisms mediated by efflux and uptake transporters that are expressed on the MDCK-MDR1 cells, predominantly by the overexpressed human MDR1 P-gp. The compounds are assigned to permeability/absorption classes by comparison of the AB permeabilities with the AB permeabilities of reference compounds with known in vitro permeability and oral absorption in the human. Identical or similar permeabilities in both transport directions indicate passive permeation, vectorial permeability points to additional active transport mechanisms. Higher PEBA than PEAB indicates the involvement of active efflux mediated by MDR1 P-gp. […]
MDCK-MDR1 cells (1-2×10e5 cells/1 cm2 area) are seeded on filter inserts (Costar transwell polycarbonate or PET filters, 0.4 μm pore size) and cultured (DMEM) for 7 days. […] Efflux ratio is calculated dividing the Papp (b-a) values by the Papp (a-b) values.

Another data set concerns the target PDE10 (Homo sapiens (Human), UniProt Q9Y233). Kind of data set: Phosphodiesterase (PDE) 10 assay with fluorescent substrate (IMAP, fluorescence polarization). The class given is biochemical. The procedure: as §1

PDE 2A, sequence (O00408 whole entry, species assumed): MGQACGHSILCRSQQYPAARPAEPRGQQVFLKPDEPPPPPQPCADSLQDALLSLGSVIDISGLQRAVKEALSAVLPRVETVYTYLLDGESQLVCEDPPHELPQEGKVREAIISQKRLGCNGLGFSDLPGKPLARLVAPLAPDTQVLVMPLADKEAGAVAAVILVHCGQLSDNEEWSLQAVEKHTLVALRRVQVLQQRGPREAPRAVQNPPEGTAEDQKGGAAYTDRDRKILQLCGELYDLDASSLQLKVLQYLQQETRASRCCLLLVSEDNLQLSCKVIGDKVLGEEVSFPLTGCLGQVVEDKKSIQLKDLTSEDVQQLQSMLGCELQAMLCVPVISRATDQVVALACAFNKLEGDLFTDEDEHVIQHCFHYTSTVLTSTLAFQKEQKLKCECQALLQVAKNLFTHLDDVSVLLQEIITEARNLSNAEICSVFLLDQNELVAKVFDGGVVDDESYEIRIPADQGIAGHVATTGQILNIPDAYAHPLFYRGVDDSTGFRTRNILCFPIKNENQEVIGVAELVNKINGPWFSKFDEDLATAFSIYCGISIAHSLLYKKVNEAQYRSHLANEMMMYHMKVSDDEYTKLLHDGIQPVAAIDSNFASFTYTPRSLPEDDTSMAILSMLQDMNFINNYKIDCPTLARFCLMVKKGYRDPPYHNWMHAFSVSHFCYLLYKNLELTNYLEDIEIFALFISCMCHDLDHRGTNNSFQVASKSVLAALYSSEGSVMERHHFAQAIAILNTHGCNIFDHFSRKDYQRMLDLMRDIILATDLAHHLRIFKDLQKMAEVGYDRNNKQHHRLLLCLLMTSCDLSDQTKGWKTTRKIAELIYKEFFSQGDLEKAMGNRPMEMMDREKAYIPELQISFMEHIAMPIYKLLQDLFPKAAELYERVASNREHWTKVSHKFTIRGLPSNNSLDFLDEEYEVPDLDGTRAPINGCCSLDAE
PDE10, sequence (Q9Y233 whole entry): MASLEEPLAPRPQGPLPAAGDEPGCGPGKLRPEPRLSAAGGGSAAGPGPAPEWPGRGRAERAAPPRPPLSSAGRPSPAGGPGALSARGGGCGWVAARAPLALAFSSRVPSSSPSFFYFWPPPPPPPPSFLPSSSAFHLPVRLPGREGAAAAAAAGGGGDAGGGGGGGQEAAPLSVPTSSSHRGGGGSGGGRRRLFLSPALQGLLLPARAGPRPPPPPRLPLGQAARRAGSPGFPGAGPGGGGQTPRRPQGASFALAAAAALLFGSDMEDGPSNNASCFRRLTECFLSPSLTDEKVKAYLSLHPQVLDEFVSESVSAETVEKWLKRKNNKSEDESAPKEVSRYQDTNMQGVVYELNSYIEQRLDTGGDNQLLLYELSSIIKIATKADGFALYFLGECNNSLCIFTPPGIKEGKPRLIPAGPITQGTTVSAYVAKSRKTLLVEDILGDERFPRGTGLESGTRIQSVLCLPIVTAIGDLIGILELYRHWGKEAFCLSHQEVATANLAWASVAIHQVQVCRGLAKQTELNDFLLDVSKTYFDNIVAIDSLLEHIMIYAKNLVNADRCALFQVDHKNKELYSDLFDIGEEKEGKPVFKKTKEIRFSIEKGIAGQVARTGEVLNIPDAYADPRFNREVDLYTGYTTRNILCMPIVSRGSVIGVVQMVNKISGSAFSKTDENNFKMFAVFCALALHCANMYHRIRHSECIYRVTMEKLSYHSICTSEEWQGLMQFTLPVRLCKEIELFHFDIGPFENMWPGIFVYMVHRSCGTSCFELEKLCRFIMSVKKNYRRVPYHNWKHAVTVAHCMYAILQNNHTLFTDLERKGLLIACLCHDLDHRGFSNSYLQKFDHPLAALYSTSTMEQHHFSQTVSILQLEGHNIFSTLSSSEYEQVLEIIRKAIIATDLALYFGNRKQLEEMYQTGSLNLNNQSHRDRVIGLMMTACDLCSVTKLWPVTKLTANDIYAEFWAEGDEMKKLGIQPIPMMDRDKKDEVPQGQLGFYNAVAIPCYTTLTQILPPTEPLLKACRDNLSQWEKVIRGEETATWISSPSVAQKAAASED

As a reminder, the IC50 is the concentration at which inhibition is half-maximal. A word on the efflux ratio: it is a quotient of directional permeabilities that is used to spot active efflux. Usually Papp A→B stands for the apparent permeability from the apical to the basolateral side of a cell layer. Take `Cc1nn2cc(C3CC3)cnc2c1C(=O)NC1(c2ccc(C(F)(F)F)cn2)CCOCC1` [Example 25]: the IC50 on PDE 2A was 0.088 µM; against PDE10, 9.07 µM. In the data set with human MDR1 P-gp (pH 7.4, MDCK-MDR1, Papp (b-a) divided by Papp (a-b)), the efflux ratio was 0.8. For the same molecule, the Papp A→B in the data set with human MDR1 P-gp (MDCK-MDR1, apical-to-basal, pH 7.4, 37° C.) stood at 100 ×10⁻⁶ cm/s.

The values are drawn from patent US11691977B2, “Cyclic ether derivatives of pyrazolo[1,5-A]pyrimidine-3-carboxyamide” (Boehringer Ingelheim International GmbH, priority 2015, dated 2023).
